Measurements as given in US20230270797A1, “NOVEL STRAIN OF THE SPECIES LACTICASEIBADLLUS RHAMNOSUS, COMPOSITIONS THEREOF AND USE THEREOF IN THE TREATMENT OF GENITOURINARY INFECTIONS” (URIACH ITALY S.R.L., priority 2020, published 2023).

Assay: Antioxidant activity, linoleic acid peroxidation (ferric thiocyanate)
Format: biochemical
Conditions: cell free supernatant; linoleic acid 50 mM; negative control (MRS broth) Abs500 nm = 2
Method: Oxidation was measured by determining ferric thiocyanate. Butylated hydroxytoluene (BHT) and α-tocopherol (1 mg/mL) were used as positive controls. MRS broth was used as negative control. […] The analysis was carried out in triplicate.

With Cc1c(C)c2c(c(C)c1O)CC[C@@](C)(CCC[C@H](C)CCC[C@H](C)CCCC(C)C)O2 [positive control, α-tocopherol] the “Antioxidant activity, absorbance values at 500nm” value was “positive control: Abs500 nm = 0.25)”.
